Biological target: T1, AP-2α (TFAP2A) (Homo sapiens, UniProt P05549)
T1 construct: endogenous full-length protein in intact HEP3B cells; western blot read-out
Test: cellular thermal shift assay (CETSA), western blot
Type: cell-based
Details: HEP3B cells treated with LEI110 or DMSO for 1 h, then heated 3 min at increasing temperatures

T1 sequence (P05549 whole entry): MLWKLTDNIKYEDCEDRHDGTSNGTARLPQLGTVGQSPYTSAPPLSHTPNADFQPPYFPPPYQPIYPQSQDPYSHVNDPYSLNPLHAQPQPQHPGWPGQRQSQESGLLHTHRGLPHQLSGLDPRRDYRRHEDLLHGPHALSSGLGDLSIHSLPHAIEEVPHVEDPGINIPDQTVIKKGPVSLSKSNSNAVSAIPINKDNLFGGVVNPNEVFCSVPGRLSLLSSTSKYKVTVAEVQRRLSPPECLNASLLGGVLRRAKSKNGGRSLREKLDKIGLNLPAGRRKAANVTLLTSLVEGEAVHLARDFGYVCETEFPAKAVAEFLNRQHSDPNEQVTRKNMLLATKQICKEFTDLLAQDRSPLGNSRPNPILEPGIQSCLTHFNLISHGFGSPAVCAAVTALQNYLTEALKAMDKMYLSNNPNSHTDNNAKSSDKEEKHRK

Compound: O=C(CCCc1ccccc1)C(=O)NCCc1ccc(Oc2ccc(C(F)(F)F)cn2)cc1 [LEI110]
- cellular thermal shift assay (CETSA), western blot: the stabilization of AP-2α by LEI110 was observed in the CETSA

— paper PMC10951303, “Macroscopic inhibition of DNA damage repair pathways by targeting AP-2α with LEI110 eradicates hepatocellular carcinoma” (Communications Biology, 2024)
